Reference: patent publication US9670227B2, “Thienopyrimidine derivatives, a process for their preparation and pharmaceutical compositions containing them” (LES LABORATOIRES SERVIER, priority 2013, dated 2017)
Like-named read-outs stand apart in the source and are kept apart here.

Columns and labels:
Mcl-1 protein = Mcl-1 protein (UniProtKB primary accession number: Q07820) (Homo sapiens, UniProt Q07820); assay: Inhibition of Mcl-1 by fluorescence polarisation, Method 1; format: binding; details: read-out: IC50 (M) Mcl-1 FP
Sequence of Mcl-1 protein (Q07820 whole entry): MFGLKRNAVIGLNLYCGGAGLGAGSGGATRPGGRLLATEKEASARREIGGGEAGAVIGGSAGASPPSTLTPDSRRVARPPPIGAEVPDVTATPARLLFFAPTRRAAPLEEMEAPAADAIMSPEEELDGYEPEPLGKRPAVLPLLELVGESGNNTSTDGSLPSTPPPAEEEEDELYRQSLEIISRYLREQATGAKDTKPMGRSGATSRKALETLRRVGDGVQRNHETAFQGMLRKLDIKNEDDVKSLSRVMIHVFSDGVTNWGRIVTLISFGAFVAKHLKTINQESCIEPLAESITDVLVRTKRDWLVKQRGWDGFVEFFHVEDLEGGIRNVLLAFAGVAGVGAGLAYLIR
How it was run: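 Fluorescence polarisation competition with an 11-point compound dilution series (final DMSO 5%). Mcl-1 protein at 5 nM and fluorescein-labelled ligand at 1 nM (final) in 10 mM HEPES, 150 mM NaCl, 0.05% Tween 20, pH 7.4.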

[1] = system: AMO-1 multiple myeloma cells; assay: Quantification of the cleaved form of PARP in vivo (MSD ELISA, tumour lysates); set-up: species or system mice (SCID strain); details: activation factor: cleaved PARP in treated mice / control mice, AMO-1 xenograft in SCID mice, intraveinous or oral routes
How it was run: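 SCID mice bearing subcutaneous AMO-1 xenografts (1.10^7 cells) dosed intravenously or orally 12 to 14 days after grafting. Cleaved PARP in tumour lysates measured by MSD ELISA. Reported as activation factor, the ratio of treated to control cleaved PARP.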

[2] = system: H929 multiple myeloma tumour line; assay: In vitro cytotoxicity, Microculture Tetrazolium Assay; format: cell-based; details: H929 cells, 48 hours exposure, MTT, read-out: IC50 (μM) MTT H929
Method: The cytotoxicity studies were carried out on the H929 multiple myeloma tumour line.
The cells are distributed onto microplates and exposed to the test compounds for 48 hours.

[3] = fluorescence polarisation test, Method 2 values are underlined in the patent (underlining not visible here)
[4] = fluorescence polarisation, Method 1, or Method 2

Row | SMILES | IC50 (Mcl-1 protein; [3]) | IC50 (Mcl-1 protein; [4]) | PARP fold [1] | IC50 ([2]; Homo sapiens, NCI-H929, 48 h) | IC50 [2]
1 | Cc1ccncc1-c1nccc(COc2ccccc2CC(Oc2ncnc3sc(-c4ccc(F)cc4)c(-c4ccc(OCCN(C)C)c(Cl)c4C)c23)C(=O)O)n1 [Example 138, (2R)-2-{[(5Sa)-5-{3-chloro-4-[2-(dimethylamino)ethoxy]-2-methylphenyl}-6-(4-fluorophenyl)thieno[2,3-d]pyrimidin-4-yl]oxy}-3-(2-{[2-(4-methylpyridin-3-yl)pyrimidin-4-yl]methoxy}phenyl)propanoic acid] | 8.9e-09 M |  | 333.9 fold | 0.013 µM | 
2 | COc1ccccc1-c1nccc(COc2ccccc2CC(Oc2ncnc3sc(-c4ccc(OCc5ccccc5)cc4)c(-c4ccc(OCCN5CCN(C)CC5)c(Cl)c4C)c23)C(=O)O)n1 [Example 762, (2R)-2-[(6-[4-(benzyloxy)phenyl]-(5Sa)-5-{3-chloro-2-methyl-4-[2-(4-methylpiperazin-1-yl)ethoxy]phenyl}thieno[2,3-d]pyrimidin-4-yl)oxy]-3-(2-{[2-(2-methoxyphenyl)pyrimidin-4-yl]methoxy}phenyl)propanoic acid] |  | 1.88e-09 M | 136.9 fold | 0.014 µM | 
3 | CCOc1nccc(COc2ccccc2CC(Oc2ncnc3sc(-c4ccc(F)o4)c(-c4ccc(OCCN5CCN(C)CC5)c(Cl)c4C)c23)C(=O)O)n1 [Example 177, (2R)-2-{[(5Sa)-5-{3-chloro-2-methyl-4-[2-(4-methylpiperazin-1-yl)ethoxy]phenyl}-6-(5-fluorofuran-2-yl)thieno[2,3-d]pyrimidin-4-yl]oxy}-3-{2-[(2-ethoxypyrimidin-4-yl)methoxy]phenyl}propanoic acid] | 2.8e-09 M |  | 233.8 fold | 0.005 µM | 
4 | COCCNc1nccc(COc2ccccc2CC(Oc2ncnc3sc(-c4ccc(F)cc4)c(-c4ccc(OCCN5CCN(C)CC5)c(Cl)c4C)c23)C(=O)O)n1 [Example 53, (2R)-2-{[(5Sa)-5-{3-chloro-2-methyl-4-[2-(4-methylpiperazin-1-yl)ethoxy]phenyl}-6-(4-fluorophenyl)thieno[2,3-d]pyrimidin-4-yl]oxy}-3-[2-({2-[(2-methoxyethyl)amino]pyrimidin-4-yl}methoxy)phenyl]propanoic acid] | 3.4e-09 M |  | 178.7 fold | 0.015 µM | 

Second part, led by results:

Row | IC50 (Mcl-1 protein; [3]) | IC50 (Mcl-1 protein; [4]) | SMILES | PARP fold [1] | IC50 ([2]; Homo sapiens, NCI-H929, 48 h) | IC50 [2]
5 | 4.6e-09 M |  | Cc1c(-c2c(-c3ccc(F)o3)sc3ncnc(OC(Cc4ccccc4OCc4ccnc(C(F)(F)F)c4)C(=O)O)c23)ccc(OCCN2CCN(C)CC2)c1Cl [Example 167, (2R)-2-{[(5Sa)-5-{3-chloro-2-methyl-4-[2-(4-methylpiperazin-1-yl)ethoxy]phenyl}-6-(5-fluorofuran-2-yl)thieno[2,3-d]pyrimidin-4-yl]oxy}-3-(2-{[2-(trifluoromethyl)pyridin-4-yl]methoxy}phenyl)propanoic acid] | 230.1 fold | 0.01 µM | 
6 |  | 1.18e-09 M | CCc1ccccc1-c1nccc(COc2ccccc2C[C@@H](Oc2ncnc3sc(-c4ccc(F)cc4)c(-c4ccc(OCCN5CCN(C)CC5)c(Cl)c4C)c23)C(=O)O)n1 [Example 726, (2R)-2-{[(5Sa)-5-{3-chloro-2-methyl-4-[2-(4-methylpiperazin-1-yl)ethoxy]phenyl}-6-(4-fluorophenyl)thieno[2,3-d]pyrimidin-4-yl]oxy}-3-(2-{[2-(2-ethylphenyl)pyrimidin-4-yl]methoxy}phenyl)propanoic acid] | 112.5 fold |  | 0.011 µM
7 | 5.8e-09 M |  | Cc1c(-c2c(-c3ccc(F)cc3)sc3ncnc(OC(Cc4ccccc4OCc4ccnc(OC(C)C)n4)C(=O)O)c23)ccc(OCCN2CCN(C)CC2)c1Cl [Example 55, (2R)-2-{[(5Sa)-5-{3-chloro-2-methyl-4-[2-(4-methylpiperazin-1-yl)ethoxy]phenyl}-6-(4-fluorophenyl)thieno[2,3-d]pyrimidin-4-yl]oxy}-3-(2-{[2-(propan-2-yloxy)pyrimidin-4-yl]methoxy}phenyl)propanoic acid] | 188.4 fold | 0.007 µM | 
